The source of these data is patent publication US20230382925A1, “MODULATORS OF CYSTIC FIBROSIS TRANSMEMBRANE CONDUCTANCE REGULATOR” (VERTEX PHARMACEUTICALS INCORPORATED, priority 2020, published 2023).

Like-named read-outs stand apart in the source and are kept apart here. Bounds are passed on as bounds.

Data set [1] deals with CFTR (Homo sapiens, UniProt P13569). Description: Membrane Potential Dye, Enteroid Assay B. It is filed as cell-based. In short, it runs like this: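 Human intestinal enteroid cells exposed to compound 18-24 h at 37 °C, then loaded with methyl oxonol membrane-potential dye plus CaCC blockers. Chloride transport triggered in chloride-free buffer with 10 μM forskolin, 100 μM IBMX, 300 nM Compound III; fluorescence read 15 min, expressed as % of triple-corrector/potentiator combination control.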

The conditions of data set [2]: amide bond, 13-membered ring, DMF.
[3] abbreviates: Table 10, read-out: Ent. B EC50.

Sequence of CFTR (P13569 with tags, fused parts or gaps DEL508-508): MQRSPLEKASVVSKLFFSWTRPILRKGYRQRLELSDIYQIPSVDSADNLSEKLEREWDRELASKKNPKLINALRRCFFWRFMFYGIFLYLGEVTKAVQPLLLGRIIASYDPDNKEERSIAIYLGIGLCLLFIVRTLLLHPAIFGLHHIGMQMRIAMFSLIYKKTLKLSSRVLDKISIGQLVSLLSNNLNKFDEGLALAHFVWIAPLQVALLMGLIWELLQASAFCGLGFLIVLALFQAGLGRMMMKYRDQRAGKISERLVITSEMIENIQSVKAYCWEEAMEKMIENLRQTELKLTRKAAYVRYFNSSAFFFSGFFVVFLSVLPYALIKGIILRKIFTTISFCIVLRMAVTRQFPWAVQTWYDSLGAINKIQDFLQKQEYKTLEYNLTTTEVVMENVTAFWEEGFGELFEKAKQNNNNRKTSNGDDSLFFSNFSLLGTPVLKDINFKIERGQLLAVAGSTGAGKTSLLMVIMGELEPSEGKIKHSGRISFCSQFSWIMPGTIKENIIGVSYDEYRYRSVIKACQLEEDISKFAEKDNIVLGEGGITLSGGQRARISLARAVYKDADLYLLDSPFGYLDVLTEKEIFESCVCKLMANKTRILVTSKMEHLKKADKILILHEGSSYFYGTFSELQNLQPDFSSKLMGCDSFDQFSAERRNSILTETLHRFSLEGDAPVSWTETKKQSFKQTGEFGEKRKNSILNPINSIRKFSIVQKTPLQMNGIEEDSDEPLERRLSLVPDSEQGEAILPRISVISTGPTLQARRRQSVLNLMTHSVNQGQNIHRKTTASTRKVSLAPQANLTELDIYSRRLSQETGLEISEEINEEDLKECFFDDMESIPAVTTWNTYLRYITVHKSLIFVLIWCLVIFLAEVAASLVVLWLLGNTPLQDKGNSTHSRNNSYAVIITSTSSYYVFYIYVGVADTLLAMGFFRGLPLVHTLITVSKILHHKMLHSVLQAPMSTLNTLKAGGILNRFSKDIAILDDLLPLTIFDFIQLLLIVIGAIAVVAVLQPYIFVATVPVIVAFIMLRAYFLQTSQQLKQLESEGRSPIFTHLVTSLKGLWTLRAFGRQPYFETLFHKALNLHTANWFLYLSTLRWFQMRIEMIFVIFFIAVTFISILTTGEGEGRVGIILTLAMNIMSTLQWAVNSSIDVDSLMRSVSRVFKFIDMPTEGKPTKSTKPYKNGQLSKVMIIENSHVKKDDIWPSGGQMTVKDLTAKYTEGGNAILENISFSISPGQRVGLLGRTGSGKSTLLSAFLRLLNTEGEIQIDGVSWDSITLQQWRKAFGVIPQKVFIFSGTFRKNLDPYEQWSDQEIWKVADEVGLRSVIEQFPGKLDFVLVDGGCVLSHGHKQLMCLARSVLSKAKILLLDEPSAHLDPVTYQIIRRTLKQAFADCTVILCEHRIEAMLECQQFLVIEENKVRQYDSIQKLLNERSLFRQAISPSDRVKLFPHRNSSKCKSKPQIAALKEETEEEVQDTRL

As a reminder, the EC50 is the concentration that produces a half-maximal response. In the case of `COCCn1cc(N2C(=O)c3cccc(c3)S(=O)(=O)Nc3nc(cc(-c4c(C)cccc4C)n3)OC[C@H]2CC(C)C)cn1` [Compound 98, (11R)-6-(2,6-Dimethylphenyl)-11-isobutyl-12-[1-(2-methoxyethyl)pyrazol-4-yl]-2,2-dioxo-9-oxa-2λ^6-thia-3,5,12,19-tetrazatricyclo[12.3.1.14,8]nonadeca-1(18),4(19),5,7,14,16-hexaen-13-one], the “Ent. B Max Activity (%)” value in data set [1] (Table 10) is on record as “+++ (+++ is >60%)”. Moreover, in data set [1] (setting [3]), the EC50 is < 1000 nM. The same compound yielded a ring closure, yield after HPLC in data set [2] (from COCCn1cc(N[C@@H](COc2cc(-c3c(C)cccc3C)nc(NS(=O)(=O)c3cccc(C(=O)O)c3)n2)CC(C)C)cn1, CDMT/NMM, 48.0 h, 2 steps) of 9%.
On to `Cc1cccc(C)c1-c1cc2nc(n1)NS(=O)(=O)c1cc(n(C)n1)C(=O)N(C1CC3(CC3)C1)[C@H](CC(C)C)CO2` [Compound 74, (10R)-15-(2,6-Dimethylphenyl)-10-isobutyl-6-methyl-3,3-dioxo-9-spiro[2.3]hexan-5-yl-12-oxa-3λ^6-thia-2,5,6,9,16,17-hexazatricyclo[11.3.1.14,7]octadeca-1(17),4,7(18),13,15-pentaen-8-one], for which the “Ent. B Max Activity (%)” value in data set [1] (Table 9) was “+++ (+++ is >60%)”. Further, in data set [1] (Table 9, read-out: Ent. B EC50), the EC50 is < 1000 nM. In data set [2] (from Cc1cccc(C)c1-c1cc(OC[C@@H](CC(C)C)NC2CC3(CC3)C2)nc(NS(=O)(=O)c2cc(C(=O)O)n(C)n2)n1, HATU/DIPEA, 4.9 mM, 6.0 h, 2 steps), this compound gave a ring closure, yield after HPLC of 10%.
As for `Cc1cccc(C)c1-c1cc2nc(n1)NS(=O)(=O)c1cccc(c1)C(=O)N(c1cnn(C(C)(C)C)c1)[C@H](CC(C)(C)C)CO2` [Compound 184, (11R)-12-(1-tert-Butylpyrazol-4-yl)-6-(2,6-dimethylphenyl)-11-(2,2-dimethylpropyl)-2,2-dioxo-9-oxa-2λ^6-thia-3,5,12,19-tetrazatricyclo[12.3.1.14,8]nonadeca-1(18),4(19),5,7,14,16-hexaen-13-one], the “Ent. B Max Activity (%)” value in data set [1] (Table 10) is on record as “+++ (+++ is >60%)”. Further, the EC50 in data set [1] (setting [3]) was < 1000 nM. In data set [2] (from Cc1cccc(C)c1-c1cc(OC[C@@H](CC(C)(C)C)Nc2cnn(C(C)(C)C)c2)nc(NS(=O)(=O)c2cccc(C(=O)O)c2)n1, CDMT/NMM, 24.9 mM, 48.0 h, 2 steps), this compound returned a ring closure, yield after HPLC of 7%.
For `Cc1cccc(C)c1-c1cc2nc(n1)NS(=O)(=O)c1cccc(c1)C(=O)N(C1CC(OC(C)C)C1)[C@H](CC(C)C)CO2` (stereo partly drawn) [Compound 47, (11R)-6-(2,6-Dimethylphenyl)-11-isobutyl-12-(3-isopropoxycyclobutyl)-2,2-dioxo-9-oxa-2λ^6-thia-3,5,12,19-tetrazatricyclo[12.3.1.14,8]nonadeca-1(18),4(19),5,7,14,16-hexaen-13-one], the “Ent. B Max Activity (%)” value in data set [1] (Table 9) is “+++ (+++ is >60%)”. In addition, the EC50 in data set [1] (Table 9, read-out: Ent. B EC50) is < 1000 nM. Also, the ring closure, yield after HPLC in data set [2] (from Cc1cccc(C)c1-c1cc(OC[C@@H](CC(C)C)NC2CC(OC(C)C)C2)nc(NS(=O)(=O)c2cccc(C(=O)O)c2)n1, HATU/Et3N, 59.2 mM, 2.0 h) was found to be 53%.
In the case of `COCCn1cc(N2C(=O)c3cccc(c3)S(=O)(=O)Nc3nc(cc(-c4c(C)cccc4C)n3)OC[C@H]2CCC(C)C)cn1` [Compound 6, (11R)-6-(2,6-Dimethylphenyl)-11-isopentyl-12-[1-(2-methoxyethyl)pyrazol-4-yl]-2,2-dioxo-9-oxa-2λ^6-thia-3,5,12,19-tetrazatricyclo[12.3.1.14,8]nonadeca-1(18),4(19),5,7,14,16-hexaen-13-one], the “Ent. B Max Activity (%)” value in data set [1] (Table 10) was “+++ (+++ is >60%)”. The EC50 in data set [1] (setting [3]) is < 1000 nM. Besides, the ring closure, yield after HPLC in data set [2] (from COCCn1cc(N[C@H](CCC(C)C)COc2cc(-c3c(C)cccc3C)nc(NS(=O)(=O)c3cccc(C(=O)O)c3)n2)cn1, CDMT/NMM, 48.0 h, 2 steps) is 16%.
As to `Cc1cccc(C)c1-c1cc2nc(n1)NS(=O)(=O)c1cccc(c1)C(=O)N(c1cnn(C)c1)[C@H](CCC(C)C)CO2` [Compound 7, (11R)-6-(2,6-Dimethylphenyl)-11-isopentyl-12-(1-methylpyrazol-4-yl)-2,2-dioxo-9-oxa-2λ^6-thia-3,5,12,19-tetrazatricyclo[12.3.1.14,8]nonadeca-1(18),4(19),5,7,14,16-hexaen-13-one], the “Ent. B Max Activity (%)” value in data set [1] (Table 10) is “+++ (+++ is >60%)”. In addition, in data set [1] (setting [3]), the EC50 was < 1000 nM. Moreover, the ring closure, yield after HPLC in data set [2] (from Cc1cccc(C)c1-c1cc(OC[C@@H](CCC(C)C)Nc2cnn(C)c2)nc(NS(=O)(=O)c2cccc(C(=O)O)c2)n1, CDMT/NMM, 48.0 h, 2 steps) is 19%.
